The test system of assay [1] is naïve CD4+ T cells co-cultured with TSLP-activated mDCs. Nature of the assay: TSLP-activated mDC-induced CD4+ T cell responses (co-culture with naive CD4+ T cells, cytokine staining / supernatant). In kind it is cell-based, human. The note with it: 20 ug/ml, naïve CD4+ T cells 7 days, PMA/ionomycin 6 h, intracellular staining. How it is done:
(FIG. 10A) Intracellular cytokine levels were analyzed by intracellular staining in cells stimulated with PMA/Ionomycin for 6 hours and with brefeldinA for 4 hrs. (FIG. 10B) Cell supernatant cytokine levels were measured by stimulating the cells with αCD3/CD28 beads for 48 hrs.
It was next tested whether anti-Dectin-1-Pam3 conjugate can indeed suppress TSLP-activated mDC-induced Th2 type T cell responses. 5×10^3 mDCs were cultured overnight with TSLP in the presence or absence of the same concentration (20 ug/ml) of anti-Dectin-1-Pam3 conjugate, combination of anti-Dectin-1 and Pam3, or Pam 3. 2×10^5 purified naïve CD4+ T cells were then added into the culture. After 7 days, T cells were stimulated for 6 h with PMA/ionomycin in the presence of brefeldin A. Cells were then stained for intracellular expression of IL-13 (Th2 type cytokine) and IFNγ (Th2 type cytokine).
Next, the Th2-type T cells were tested. mDCs were first primed with 40 ng/mL TSLP and either αdectin-1 or αDectin-1-pam3 at 20 ug/mL After 24 hrs, naïve CD4+ T cells are added to the mDCs and cultured for an additional 6 days. Intracellular cytokine levels were analyzed by intracellular staining in cells stimulated with PMA/Ionomycin for 6 hours and with brefeldinA for 4 hrs (FIG. 10A). Cell supernatant cytokine levels were measured by stimulating the cells with αCD3/CD28 beads for 48 hrs (FIG. 10B).

Assay [2] relates to dendritic cells and CD4+ T cells; allergic patient PBMCs. In words: Th2 responses after curdlan activation of DCs / allergic patient PBMCs. In kind it is cell-based, human.

For `CCCCCCCCCCCCCCCC(=O)N[C@@H](CSCC(COC(=O)CCCCCCCCCCCCCCC)OC(=O)CCCCCCCCCCCCCCC)C(=O)N[C@@H](CO)C(=O)N[C@@H](CCCCN)C(=O)N[C@@H](CCCCN)C(=O)N[C@@H](CCCCN)C(=O)N[C@@H](CCCCN)C(=O)O` (mixture of isomers) [Pam3, N-Palmitoyl-S-[2,3-bis(palmitoyloxy)-(2RS)-propyl]-[R]-cysteinyl-[S]-seryl-[S]-lysyl-[S]-lysyl-[S]-lysyl-[S]-lysine], the “IL-13+CD4+ T cell responses” value in assay [1] came to 3.47%.

Turning to curdlan, the “Antigen-specific TH2 responses” value in assay [2] (Flu HA1 antigen, DCs and CD4+ T cells, restimulation with HA-1-derived peptides) was “decreased antigen-specific TH2 responses”. The “Th2-type T cell responses” value in assay [2] (allergic patient PBMCs) is listed as “significantly down-regulated Th2-type T cell responses”. Further, the “Percentage of IL-13+ cells” value in assay [2] (restimulation with PMA/Ionomycin, immunostaining) is “decreased significantly”. Besides, the “Total TH2 responses” value in assay [2] (restimulation with PMA/Ionomycin, immunostaining for IL-13 and IL-5) is listed as “downregulates total TH2 responses”.

These data come from patent US20170095573A1, “METHODS AND COMPOSITIONS FOR TREATING ALLERGY AND INFLAMMATORY DISEASES” (Baylor Research Institute, priority 2014, published 2017).
